B1: 99 (peptide)
chain: TAKSKKFPSYTATYQFGGKKKIITITRIITIITTIDGGCGETYQSRVTHPHLPRALMRSTTKC

Test system: human IgE myeloma protein
Test: Human IgE ELISA of guinea pig immune sera
Set-up: species or system guinea pigs
Conditions: in vivo
Procedure: These peptide immunogens were used to immunize groups of 3 guinea pigs using 100 μg/dose, formulated in CFA at week 0, IFA at weeks 3 and 6, and administered intramuscularly. For comparison, a group of two animals were immunized with a peptide/KLH carrier protein conjugate at 200 μg/dose, similarly administered. ELISA results of serum samples collected at week 8 are shown. In the ELISA a human IgE myeloma protein (American Biosystem, Inc. cat no. A113) was used as the solid-phase immunoadsorbant. The procedure used was identical to the peptide-based ELISAs described previously, except IgE myeloma was used as the solid phase immunoadsorbant. […] The inclusion of the Inv domain sequence (SEQ ID NO:78) augmented the immunogenicity, as shown by the enhanced immunogenicity of SEQ ID NO:99 over SEQ ID NO:98.

Molecule	Log10 ELISA (average for animals of the group) [Log10]	No. responding
98 (KKKIITITRIITIITTIDGGCGETYQSRVTHPHLPRALMRSTTKC) [compound 98]	2.35	3/3
B1	3.28	3/3

From patent publication US6713301B1, “Artificial T helper cell epitopes as immune stimulators for synthetic peptide immunogens” (United Biomedical, Inc., priority 1998, dated 2004)
